In the supplement of paper PMC10307832:

What was measured:
Experiment in all cases: relative viability (nuclei count vs DMSO), 5 days (fraction); higher = more cells survive
[1] = compound: C[As](C)SC[C@H](NC(=O)CC[C@H](N)C(=O)O)C(=O)NCC(=O)O [Darinaparsin] + CC(=O)Nc1cccc(-n2c(=O)n(C3CC3)c(=O)c3c(Nc4ccc(I)cc4F)n(C)c(=O)c(C)c32)c1 [Trametinib] (partner 0.02 µM)
Procedure, shortened: (§1)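 One day after seeding in 1536-well plates, lung cancer cell lines were dosed by pin tool. Dosing was either single-drug or a fixed anchor-drug dose plus five library-drug doses (not always all listed) in √10 steps. After 5 days, nuclei were stained in one fix-and-stain step and counted on 4× images, and relative viability is the nuclei count of treated wells over that of vehicle wells, given as the median of duplicate plates.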

Darinaparsin + Olaparib = compound: C[As](C)SC[C@H](NC(=O)CC[C@H](N)C(=O)O)C(=O)NCC(=O)O [Darinaparsin] + O=C(c1cc(Cc2n[nH]c(=O)c3ccccc23)ccc1F)N1CCN(C(=O)C2CC2)CC1 [Olaparib] (partner 8 µM)
Procedure, shortened: as §1

QS11 + Lapatinib = compound: C1CC2=C(C1)C=C(C=C2)OC3=NC(=C4C(=N3)N(C=N4)CC5=CC=C(C=C5)C6=CC=CC=C6)N[C@@H](CC7=CC=CC=C7)CO [QS11] + CS(=O)(=O)CCNCc1ccc(-c2ccc3ncnc(Nc4ccc(OCc5cccc(F)c5)c(Cl)c4)c3c2)o1 [Lapatinib] (partner 2 µM)
Procedure, shortened: as §1

QS11 + AZD7762 = compound: C1CC2=C(C1)C=C(C=C2)OC3=NC(=C4C(=N3)N(C=N4)CC5=CC=C(C=C5)C6=CC=CC=C6)N[C@@H](CC7=CC=CC=C7)CO [QS11] + NC(=O)Nc1cc(-c2cccc(F)c2)sc1C(=O)N[C@H]1CCCNC1 [AZD7762] (partner 0.2 µM)
Procedure, shortened: as §1

| Cell Line | relative viability ([1]; first compound 0.08 µM) | relative viability ([1]; first compound 0.8 µM) | relative viability ([1]; first compound 2.53 µM) | relative viability ([1]; first compound 8 µM) | relative viability (Darinaparsin + Olaparib; first compound 0.08 µM) | relative viability (Darinaparsin + Olaparib; first compound 0.8 µM) | relative viability (Darinaparsin + Olaparib; first compound 2.53 µM) | relative viability (Darinaparsin + Olaparib; first compound 8 µM) | relative viability (QS11 + Lapatinib; first compound 0.08 µM) | relative viability (QS11 + Lapatinib; first compound 0.253 µM) | relative viability (QS11 + Lapatinib; first compound 0.8 µM) | relative viability (QS11 + Lapatinib; first compound 2.53 µM) | relative viability (QS11 + Lapatinib; first compound 8 µM) | relative viability (QS11 + AZD7762; first compound 0.08 µM) | relative viability (QS11 + AZD7762; first compound 0.253 µM) | relative viability (QS11 + AZD7762; first compound 0.8 µM) | relative viability (QS11 + AZD7762; first compound 2.53 µM) | relative viability (QS11 + AZD7762; first compound 8 µM) |
| --- | --- | --- | --- | --- | --- | --- | --- | --- | --- | --- | --- | --- | --- | --- | --- | --- | --- | --- |
| NCI-H2009 | 0.283 | 0.246 | 0.196 | 0.27 | 0.715 | 0.769 | 0.628 | 0.72 | 0.983 | 0.884 | 0.634 | 0.855 | 0.728 | – | – | – | – | – |
| SK-LU-1 | 0.625 | 0.401 | 0.382 | 0.521 | 0.613 | 0.431 | 0.407 | 0.562 | 0.704 | 0.868 | 0.963 | 0.803 | 0.838 | – | – | – | – | – |
| RERF-LC-KJ | 0.933 | 0.933 | 0.93 | 0.817 | 1.12 | 0.859 | 0.924 | 0.775 | 0.588 | 0.877 | 0.577 | 0.77 | 0.882 | 1.06 | 0.836 | 0.728 | 0.879 | 0.945 |
| NCI-H322M | 0.525 | 0.505 | 0.495 | 0.511 | 0.763 | 0.763 | 0.713 | 0.726 | 0.573 | 0.642 | 0.559 | 0.576 | 0.628 | 0.525 | 0.515 | 0.477 | 0.53 | 0.552 |
| LK-2 | 0.936 | 0.61 | 0.847 | 0.878 | 0.727 | 0.546 | 0.644 | 0.731 | 1.04 | 1.15 | 1 | 0.829 | 1.3 | 0.388 | 0.643 | 0.527 | 0.412 | 0.455 |
| SK-MES-1 | 0.558 | 0.521 | 0.551 | 0.61 | 0.888 | 0.66 | 0.662 | 0.474 | 0.475 | 0.432 | 0.498 | 0.457 | 0.45 | – | – | – | – | – |
| NCI-H1299 | – | – | – | – | 1.02 | 0.928 | 0.98 | 0.981 | 1.02 | 0.933 | 0.807 | 0.917 | 0.712 | – | – | – | – | – |
| NCI-H2228 | 0.563 | 0.382 | 0.462 | 0.354 | 0.746 | 0.74 | 0.693 | 0.944 | 1.12 | 0.826 | 1.17 | 1.54 | 1.09 | – | – | – | – | – |
| NCI-H1792 | 0.513 | 0.52 | – | 0.557 | 0.412 | 0.496 | – | 0.368 | – | 1.03 | 0.633 | 0.937 | 0.711 | – | 0.733 | 0.595 | 0.385 | 0.34 |
| LOU-NH91 | 0.848 | 0.747 | 0.851 | 0.822 | 0.932 | 0.869 | 0.912 | 0.964 | 0.742 | 0.622 | – | 0.731 | 0.685 | 0.764 | 0.707 | 0.751 | 0.719 | 0.818 |
| IA-LM | – | – | – | – | 0.93 | 0.936 | 0.982 | 0.884 | 1.13 | 1.02 | 0.513 | 0.589 | 0.596 | – | – | – | – | – |
| SW 900 | 0.73 | – | 0.813 | 0.985 | 0.837 | – | 0.85 | 0.773 | – | – | – | – | – | 0.603 | 0.549 | 0.611 | 0.502 | 0.504 |
| LU99A | 0.529 | 0.62 | 0.545 | 0.55 | 0.275 | 0.252 | 0.125 | 0.246 | 0.83 | 1.17 | 1.15 | 0.963 | 0.637 | 0.326 | 0.348 | 0.398 | 0.362 | 0.239 |
| NCI-H661 | 0.646 | 0.618 | 0.532 | 0.677 | 0.799 | 0.787 | 0.699 | 0.815 | 0.474 | 0.45 | 0.632 | 0.354 | 0.463 | – | – | – | – | – |
| EBC-1 | – | – | – | – | 0.811 | 0.731 | 0.603 | 0.511 | 0.233 | 0.198 | 0.194 | 0.211 | 0.207 | – | – | – | – | – |
| NCI-H3122 | 0.231 | 0.208 | 0.216 | 0.347 | 0.796 | 0.589 | 0.572 | 0.791 | 1.03 | 1.14 | 0.71 | 1.16 | 0.824 | 0.998 | 1.05 | – | 1.15 | 0.961 |
| LC-2-ad | 0.975 | 0.903 | 0.815 | 1.08 | 0.739 | 0.748 | 0.669 | 0.719 | 0.91 | 1.09 | 0.627 | 1.04 | 0.921 | 0.726 | 0.865 | 0.666 | 0.926 | 1.03 |
| HCC-78 | 0.823 | 0.673 | 0.879 | 1.24 | 0.884 | 0.712 | 0.851 | 0.955 | 0.577 | 0.876 | 0.699 | 0.627 | 0.847 | 0.677 | 0.527 | 0.552 | 0.703 | 0.703 |
| SW 1573 | 0.589 | 0.516 | 0.58 | 0.744 | 0.592 | 0.493 | 0.42 | 0.431 | 1.02 | 1.14 | 1.1 | 1.05 | 1.2 | – | – | – | – | – |
| NCI-H358 | 0.112 | 0.129 | 0.134 | 0.145 | 0.701 | 0.61 | 0.585 | 0.569 | 0.41 | 0.436 | 0.482 | 0.703 | 0.785 | 0.542 | 0.474 | 0.529 | 0.6 | 0.681 |
| ChaGo-K-1 | 0.914 | 0.862 | 0.785 | 0.984 | 0.469 | 0.417 | 0.385 | 0.401 | – | – | – | – | – | – | 0.862 | 1 | 0.941 | 1 |
